These are literature values, as cited in patent US20200215051A1, “NEBULIZATION COMPOSITION COMPRISING TIOTROPIUM AND INDACATEROL” (GLENMARK SPECIALTY S.A., priority 2019, published 2020).

The structures appear in SMILES notation.

The conditions of the data set: water.

Consider `CCc1cc2c(cc1CC)CC(NC[C@H](O)c1ccc(O)c3[nH]c(=O)ccc13)C2` [Indacaterol, 5-[(1R)-2-[(5,6-diethyl-2,3-dihydro-1H-inden-2-yl)amino]-1-hydroxyethyl]-8-hydroxy-1H-quinolin-2-one], for which the aqueous solubility result was “very slightly soluble in water”.
